Experimental findings from patent US4568693A, “N-Naphthoylglycine derivatives” (Ayerst, McKenna & Harrison, Inc., priority 1981, dated 1986) are described below.

Molecules are shown by their SMILES.

The target in one test is T1, aldose reductase (Bos taurus, UniProt P16116).
T1 construct: the preparation of the enzyme from bovine lens; from tissue; host or cells: bovine lens
In words: in vitro aldose reductase inhibition (modified Hayman and Kinoshita procedure). The format is biochemical, bovine. The following applies: for inhibition at 10 µM: 10^-5 molar, read-out: % Inhibition at Different Molar Concentration (in vitro), 10^-5; for inhibition at 1 µM: 10^-6 molar, read-out: % Inhibition at Different Molar Concentration (in vitro), 10^-6; for inhibition at 0.1 µM: 10^-7 molar, read-out: % Inhibition at Different Molar Concentration (in vitro), 10^-7. An excerpt:
In the present case the procedure of Hayman and Kinoshita is modified in that the final chromatography step is omitted in the preparation of the enzyme from bovine lens.

Test [1] deals with accumulation of dulcitol in the lenses. In words: galactosemic rats, dulcitol accumulation in the lens. The format is in vivo, rat (Sprague-Dawley). The following applies: 4 days, vs untreated galactosemic rats. An excerpt: The aldose reductase inhibiting property of the compounds of this invention and the utilization of the compounds in preventing, diminishing and alleviating diabetic complications are demonstrable in experiments using galactosemic rats, see Dvornik et al., cited above. Such experiments are exemplified hereinbelow after the listing of the following general comments pertaining to these experiments:
(a) Four or more groups of six male rats, 50-70 g, Sprague-Dawley strain, were used. The first group, the control group, was fed a mixture of laboratory chow (rodent laboratory chow, Purina) and glucose at 20% (w/w %) concentration. The untreated galactosemic group was fed a similar diet in which galactose is substituted for glucose. The third group was fed a diet prepared by mixing a given amount of the test compound with the galactose containing diet. The concentration of galactose in the diet of the treated groups was the same as that for the untreated galactosemic group.
(b) After four days, the animals were killed by decapitation. The eyeballs were removed and punctured with a razor blade; the freed lenses were rolled gently on filter paper and weighed. The sciatic nerves were dissected as completely as possible and weighed. Both tissues were frozen and can be kept up to two weeks before being analyzed for dulcitol.
(c) The polyol determination was performed by a modification of the procedure of M. Kraml and L. Cosyns, Clin. Biochem., 2, 373 (1969). Only two minor reagent changes were made: (a) The rinsing mixture was an aqueous 5% (w/v) trichloroacetic acid solution and (b) the stock solution was prepared by dissolving 25 mg of dulcitol in 100 ml of an aqueous trichloroacetic acid solution. [N.B.: For each experiment the average value found in the tissue from rats fed the glucose diet was subtracted from the individual values found in the corresponding rat tissue to obtain the amount of polyol accumulated].
The figures under L and N represent the percentage decrease of dulcitol accumulation in the tissues of the lens and sciatic nerve, respectively, for treated rats as compared to untreated rats.

Regarding `COc1ccc2c(C(=S)N(C)CC(=O)O)cccc2c1C#N` [Example 48, N-[(5-cyano-6-methoxy-1-naphthalenyl)thioxomethyl]-N-methylglycine], on aldose reductase, the inhibition at 10 µM is 98%, the inhibition at 1 µM came to 93% and the inhibition at 0.1 µM was 74%.
Consider `CN(CC(=O)O)C(=S)c1cccc2c(C#N)cccc12` [Example 38, N-[(5-cyano-1-naphthalenyl)thioxomethyl]-N-methylglycine], for which, on aldose reductase, the inhibition at 10 µM stood at 89%, the inhibition at 1 µM is 79% and the inhibition at 0.1 µM stood at 32%.
On to `CN(CC(=O)O)C(=O)c1cccc2c(Br)cccc12` [N-[(5-Bromo-1-naphthalenyl)carbonyl]-N-methylglycine], for which, at aldose reductase, the inhibition at 10 µM is 64% and the inhibition at 1 µM was 21%.
Regarding `Cc1ccc2c(C(=S)N(C)CC(=O)O)cccc2c1Br` [Example 42, N-[(5-bromo-6-methyl-1-naphthalenyl)thioxomethyl]-N-methylglycine], at aldose reductase, the inhibition at 10 µM turned out to be 92%, the inhibition at 1 µM came out at 88% and the inhibition at 0.1 µM was 55%.
As to `COC(=O)CN(C)C(=S)c1cccc2c(Br)cccc12` [Example 3, N-[(5-Bromo-1-naphthalenyl)thioxomethyl]-N-methylglycine Methyl Ester], the inhibition at 10 µM on aldose reductase was 8%.
As to `CCN(CC(=O)O)C(=S)c1cccc2c(Br)cccc12` [Example 57, N-[(5-bromo-1-naphthalenyl)thioxomethyl]-N-ethylglycine], on aldose reductase, the inhibition at 10 µM is 85%, the inhibition at 1 µM amounted to 72% and the inhibition at 0.1 µM was found to be 24%.
With `COCCCOc1ccc2c(C(=S)N(C)CC(=O)O)cccc2c1Br` [Example 49, N-[[5-bromo-6-(3-methoxy-propoxy)-1-naphthalenyl]thioxomethyl]-N-methylglycine], at aldose reductase, the inhibition at 10 µM was 92%, the inhibition at 1 µM stood at 87% and the inhibition at 0.1 µM amounted to 38%.
For `COc1cccc2c(C(=S)N(C)CC(=O)O)cccc12` [Example 35, N-[(5-methoxy-1-naphthalenyl)thioxomethyl]-N-methylglycine], at aldose reductase, the inhibition at 10 µM is 83%, the inhibition at 1 µM came to 64% and the inhibition at 0.1 µM was found to be 17%.
On to `CC(C)c1cccc2c(C(=S)N(C)CC(=O)O)cccc12` [Example 51, N-[[5-(1-methylethyl)-1-naphthalenyl]thioxomethyl]-N-methylglycine], for which, at aldose reductase, the inhibition at 10 µM was 91%, the inhibition at 1 µM amounted to 72% and the inhibition at 0.1 µM came out at 21%.
As for `C=C(C)c1cccc2c(C(=S)N(C)CC(=O)O)cccc12` [Example 50, N-[[5-(1-methylethenyl)-1-naphthalenyl]thioxomethyl]-N-methylglycine], on aldose reductase, the inhibition at 10 µM came to 92%, the inhibition at 1 µM was determined as 74% and the inhibition at 0.1 µM turned out to be 19%.
Consider `CN(CC(=O)O)C(=S)c1cccc2c(Br)c(OCc3cccc(C(F)(F)F)c3)ccc12` [Example 53, N-[[5-bromo-6-[3-(trifluoromethyl)phenylmethoxy]-1-naphthalenyl]thioxomethyl]-N-methylglycine], for which, on aldose reductase, the inhibition at 10 µM stood at 86%, the inhibition at 1 µM was determined as 37% and the inhibition at 0.1 µM is 11%.
For the molecule `COc1ccc2c(C(=O)N(C)CC(=O)O)cccc2c1C(F)(F)F` [N-[[5-(trifluoromethyl)-6-methoxy-1-naphthalenyl]carbonyl]-N-methylglycine], on aldose reductase, the inhibition at 10 µM came to 94%, the inhibition at 1 µM was 93% and the inhibition at 0.1 µM amounted to 60%.
Turning to `CCCCN(CC(=O)O)C(=S)c1cccc2c(Br)cccc12` [Example 58, N-[(5-bromo-1-naphthalenyl)thioxomethyl]-N-butylglycine], at aldose reductase, the inhibition at 10 µM was found to be 86%, the inhibition at 1 µM stood at 65% and the inhibition at 0.1 µM stood at 19%.
For `CN(CC(=O)O)C(=S)c1ccc(Br)c2ccccc12` [Example 33, N-[(4-bromo-1-naphthalenyl)thioxomethyl]-N-methylglycine], at aldose reductase, the inhibition at 10 µM turned out to be 91%, the inhibition at 1 µM was determined as 77% and the inhibition at 0.1 µM amounted to 32%.
On to `CN(CC(=O)O)C(=S)c1cccc2c(Br)c(OCc3ccc(Cl)cc3)ccc12` [Example 53a, N-[[5-bromo-6-(4-chlorophenylmethoxy)-1-naphthalenyl]thioxomethyl]-N-methylglycine], for which, at aldose reductase, the inhibition at 10 µM is 88%, the inhibition at 1 µM came out at 44% and the inhibition at 0.1 µM turned out to be 4%.
As to `COc1ccc2c(C(=S)N(C)CC(=O)O)ccc(OC)c2c1C(F)(F)F` [CH3, H, 4-CH3 O, 5-CF3,6-CH3 O, N-[[4,6-dimethoxy-5-(trifluoromethyl)-1-naphthalenyl]thioxomethyl]-N-methylglycine], the “percentage decrease of dulcitol accumulation, lens (L)” value in test [1] (144 mg/kg/day in diet) is reported as 33%.
For the molecule `CCCCCOc1ccc2c(C(=S)N(C)CC(=O)O)cccc2c1Br` [Example 37, N-[(5-bromo-6-pentyloxy-1-naphthalenyl)thioxomethyl]-N-methylglycine], at aldose reductase, the inhibition at 10 µM is 93%, the inhibition at 1 µM came to 91% and the inhibition at 0.1 µM stood at 55%.
Consider `O=C(O)CNC(=S)c1cccc2c(Br)cccc12` [Example 54, N-[(5-bromo-1-naphthalenyl)thioxomethyl]glycine], for which, on aldose reductase, the inhibition at 10 µM worked out at 54% and the inhibition at 1 µM worked out at 14%.
As for `CN(CC(=O)O)C(=S)c1ccc(Cl)c2ccccc12` [Example 44, N-[(4-chloro-1-naphthalenyl)thioxomethyl]-N-methylglycine], at aldose reductase, the inhibition at 10 µM was 88%, the inhibition at 1 µM was determined as 73% and the inhibition at 0.1 µM was 25%.
As to `CCCN(CC(=O)O)C(=S)c1cccc2c(Br)cccc12` [Example 55, N-[(5-bromo-1-naphthalenyl)thioxomethyl]-N-propylglycine], on aldose reductase, the inhibition at 10 µM was 91%, the inhibition at 1 µM came out at 70% and the inhibition at 0.1 µM was 19%.
Regarding `O=C(O)CN(Cc1ccccc1)C(=S)c1cccc2c(Br)cccc12` [Example 59, N-[(5-bromo-1-naphthalenyl)thioxomethyl]-N-(phenylmethyl)glycine], on aldose reductase, the inhibition at 10 µM came out at 86%, the inhibition at 1 µM amounted to 69% and the inhibition at 0.1 µM was determined as 20%.
For `COc1ccc2c(C(=S)N(C)CC(=O)O)cccc2c1C(F)(F)F` [Example 52, N-[[5-(trifluoromethyl)-6-methoxy-1-naphthalenyl]thioxomethyl]-N-methylglycine], in test [1] (26 mg/kg/day in diet), the “percentage decrease of dulcitol accumulation, lens (L)” value worked out at 15%.
In the case of `CN(CC(=O)O)C(=S)c1cccc2c([N+](=O)[O-])cccc12` [Example 39, N-[(5-nitro-1-naphthalenyl)thioxomethyl]-N-methylglycine], on aldose reductase, the inhibition at 10 µM stood at 91%, the inhibition at 1 µM came to 83% and the inhibition at 0.1 µM was 43%.
`COc1ccc2c(C(=S)N(C)CC(=O)O)cccc2c1I` [Example 47, N-[(5-iodo-6-methoxy-1-naphthalenyl)thioxomethyl]-N-methylglycine]: at aldose reductase, the inhibition at 10 µM is 98%, the inhibition at 1 µM is 95% and the inhibition at 0.1 µM stood at 72%.
For `C=CCN(CC(=O)O)C(=S)c1cccc2c(Br)cccc12` [Example 56, N-[(5-bromo-1-naphthalenyl)thioxomethyl]-N-(2-propylene)glycine], at aldose reductase, the inhibition at 10 µM is 92%, the inhibition at 1 µM was determined as 77% and the inhibition at 0.1 µM amounted to 27%.
With `CN(CC(=O)O)C(=S)c1cccc2cccc(Br)c12` [Example 34, N-[(8-bromo-1-naphthalenyl)thioxomethyl]-N-methylglycine], at aldose reductase, the inhibition at 10 µM came to 88%, the inhibition at 1 µM amounted to 75% and the inhibition at 0.1 µM was determined as 24%.
For `Cc1cccc2c(C(=S)N(C)CC(=O)O)cccc12` [Example 36, N-[(5-methyl-1-naphthalenyl)thioxomethyl]-N-methylglycine], in that order: 89%, 74% and 26%.
As to `COc1c(Cl)cc(C(=S)NCC(=O)O)c2ccccc12` [Example 32 (H, H, 3-Cl, 4-CH3 O), N-[(3-chloro-4-methoxy-1-naphthalenyl)thioxomethyl]glycine], at aldose reductase, the inhibition at 10 µM was 61% and the inhibition at 1 µM is 16%.
Regarding `CN(CC(=O)O)C(=S)c1cccc2ccccc12` [Example 43, N--((1naphthalenyl)thioxomethyl)-N--methylglycine], on aldose reductase, the inhibition at 10 µM turned out to be 85%, the inhibition at 1 µM stood at 51% and the inhibition at 0.1 µM was 13%.
